Marks after values point to notes of the source that are not given here.
Experiments:
[1] = test system: THP1-Lucia ISG IRF3 −/− cells; experiment: IRF3-deficient THP1-Lucia ISG IRF3 −/− reporter assay (counter-screen); type: cell-based; details: Homo sapiens, 18 h after stimulation, read-out: THP1 ISG IRF3 −/−: fold increase of luciferase activity over background; for fold induction at 5 µM: 5 μM compound (**); for fold induction at 10 µM: 10 μM compound
Outline: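 PMA-differentiated (100 ng/ml) reporter cells carrying ISRE/ISG54 minimal promoter-driven secreted luciferase were stimulated with compounds at 5–20 μM (mostly 10 μM). Luciferase measured 18 h later and expressed as fold increase over untreated background, binned from "−" (<2.4-fold) to "+++++" (≥40-fold).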

[2] = test system: IRF3 signaling pathway (IRF-inducible ISG54 promotor) in THP1-Lucia ISG cells; experiment: THP1-Lucia ISG reporter assay: induction of IRF3-dependent luciferase activity; type: cell-based; details: Homo sapiens, PMA-differentiated cells, 18 h after stimulation, read-out: THP1 ISG: fold increase of IRF3-dependent luciferase activity over background; for fold induction at 10 µM: 10 μM compound; for fold induction at 20 µM: 20 μM compound (*)
Outline: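 PMA-differentiated (100 ng/ml) reporter cells, parental and IRF3−/−, stimulated with compounds at 5–20 μM (mostly 10 μM). Secreted luciferase measured 18 h later. Scored as fold increase over untreated background in bands from "−" (<2.4-fold) to "+++++" (≥40-fold).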

[3] = test system: CXCL10 secretion by CT26 cells; experiment: RIG-I dependent CXCL10 secretion by CT26 colon carcinoma cells (ELISA); type: cell-based, murine; details: 24 h
Outline: (§1)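 Murine CT26 colon carcinoma cells, and CRISPR-generated RIG-I knockout CT26 cells, were seeded at 1×10^4 cells/well and grown 24 h at 37 °C, 5% CO2, then treated with compounds at 5 to 20 μM. CXCL10 in supernatants was measured by ELISA 24 h after stimulation.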

[4] = test system: RIG-I deficient CT26 RIG-1−/− cells; experiment: CXCL10 secretion in RIG-I deficient CT26 RIG-1−/− cells (ELISA); type: cell-based, murine; details: 24 h
Outline: as §1

| SMILES | fold induction at 5 µM [1] | fold induction at 10 µM [2] | CXCL10 secretion by CT26 cells ([3]; 10 μM compound) | CXCL10 secretion by CT26 RIG-I −/− cells ([4]; 10 μM compound) | fold induction at 10 µM [1] | fold induction at 20 µM [2] | CXCL10 secretion by CT26 cells ([3]; 20 μM compound (*)) | CXCL10 secretion by CT26 RIG-I −/− cells ([4]; 20 μM compound (*)) | fold induction at 20 µM ([1]; 20 μM compound (*)) |
| --- | --- | --- | --- | --- | --- | --- | --- | --- | --- |
| O=C(Nc1nc2ccc(S(=O)(=O)N3CC[C@@H](O)C3)cc2s1)c1cc2ccccc2cc1OCCCCN1CCOCC1 [Example 78, N-(6-{[(3R)-3-hydroxypyrrolidin-1-yl]sulfonyl}-1,3-benzothiazol-2-yl)-3-[4-(morpholin-4-yl)butoxy]naphthalene-2-carboxamide] | < 2.4 | ≥ 40 | +++++ (“+++++” indicates greater than or equal to 1600 pg/ml) | − (“−” indicates less than 100 pg/mL) | – | – | – | – | – |
| O=C(Nc1cc2ccc(S(=O)(=O)N3CCCC3)cc2s1)c1ccc(-c2ccccc2)cc1 [Example 81, N-[6-(pyrrolidine-1-sulfonyl)-1-benzothiophen-2-yl]-[1,1′-biphenyl]-4-carboxamide] | – | 20 to 39 | ++++ (“++++” indicates 800 to 1599 pg/mL) | − (“−” indicates less than 100 pg/mL) | < 2.4 | – | – | – | – |
| O=C(Nc1nc2ccc(OCC(F)(F)F)cc2s1)c1ccc2ccccc2c1 [Example 5, N-[6-(2,2,2-trifluoroethoxy)-1,3-benzothiazol-2-yl]naphthalene-2-carboxamide] | – | 2.4 to 4.9 | +++ (“+++” indicates 400-799 pg/mL) | − (“−” indicates less than 100 pg/mL) | < 2.4 | – | – | – | – |
| O=C(Nc1nc2ccc(S(=O)(=O)N3CCC(O)C3)cc2s1)c1cc2ccccc2cc1OCCN1CCOCC1 (stereo not shown) [Example 56, N-{6-[(3-hydroxypyrrolidin-1-yl)sulfonyl]-1,3-benzothiazol-2-yl}-3-[2-(morpholin-4-yl)ethoxy]naphthalene-2-carboxamide] | – | 10 to 19 | +++ (“+++” indicates 400-799 pg/mL) | − (“−” indicates less than 100 pg/mL) | < 2.4 | – | – | – | – |
| O=C(Nc1nc2ccc(S(=O)(=O)N3CCC3)cc2s1)c1cc2ccccc2cc1OCCN1CCOCC1 [Example 35, N-[6-(azetidine-1-sulfonyl)-1,3-benzothiazol-2-yl]-3-[2-(morpholin-4-yl)ethoxy]naphthalene-2-carboxamide] | – | 20 to 39 | + (“+” indicates 100-199 pg/mL) | − (“−” indicates less than 100 pg/mL) | < 2.4 | – | – | – | – |
| O=C(Nc1nc2ccc(S(=O)(=O)N3CC[C@@H](O)C3)cc2s1)c1cc2ccccc2cc1OCCN1CCOCC1 [Example 77, N-(6-{[(3R)-3-hydroxypyrrolidin-1-yl]sulfonyl}-1,3-benzothiazol-2-yl)-3-[2-(morpholin-4-yl)ethoxy]naphthalene-2-carboxamide] | – | 2.4 to 4.9 | + (“+” indicates 100-199 pg/mL) | − (“−” indicates less than 100 pg/mL) | < 2.4 | – | – | – | – |
| O=C(Nc1nc2ccc(S(=O)(=O)N3CCC3)cc2s1)c1cc2c(cc1OCCN1CCOCC1)OCO2 [Example 61, N-[6-(azetidine-1-sulfonyl)-1,3-benzothiazol-2-yl]-6-[2-(morpholin-4-yl)ethoxy]-2H-1,3-bezodioxole-5-carboxamide] | – | 5 to 9.9 | ++ (“++” indicates 200-399 pg/mL) | − (“−” indicates less than 100 pg/mL) | < 2.4 | – | – | – | – |
| O=C(Nc1nc2ccc(S(=O)(=O)N3CCOCC3)cc2s1)c1cc2ccccc2cc1OCCCCN1CCOCC1 [Example 17, 3-[4-(morpholin-4-yl)butoxy]-N-[6-(morpholine-4-sulfonyl)-1,3-benzothiazol-2-yl]naphthalene-2-carboxamide] | – | 10 to 19 | +++ (“+++” indicates 400-799 pg/mL) | − (“−” indicates less than 100 pg/mL) | < 2.4 | – | – | – | – |
| O=C(Nc1nc2ccc(S(=O)(=O)N3CCCCC3)cc2s1)c1cc2ccccc2cc1OCCCCN1CCOCC1 [Example 38, 3-[4-(morpholin-4-yl)butoxy]-N-[6-(piperidine-1-sulfonyl)-1,3-benzothiazol-2-yl]naphthalene-2-carboxamide] | – | 10 to 19 | +++ (“+++” indicates 400-799 pg/mL) | − (“−” indicates less than 100 pg/mL) | < 2.4 | – | – | – | – |
| CS(=O)(=O)Nc1ccc2nc(NC(=O)c3ccc4ccccc4c3)sc2c1 [Example 7, N-(6-methanesulfonamido-1,3-benzothiazol-2-yl)naphthalene-2-carboxamide] | – | 20 to 39 | ++ (“++” indicates 200-399 pg/mL) | − (“−” indicates less than 100 pg/mL) | < 2.4 | – | – | – | – |
| O=C(Nc1nc2ccc(S(=O)(=O)N3CCCC3)cc2s1)c1sc2ccccc2c1OCCN1CCOCC1 [Example 84, 3-[2-(morpholin-4-yl)ethoxy]-N-[6-(pyrrolidine-1-sulfonyl)-1,3-benzothiazol-2-yl]-1-benzothiophene-2-carboxamide] | – | 5 to 9.9 | ++ (“++” indicates 200-399 pg/mL) | − (“−” indicates less than 100 pg/mL) | < 2.4 | – | – | – | – |
| O=C(Nc1nc2ccc(OCC(F)(F)F)cc2s1)c1cc2ccccc2cc1OCCN1CCOCC1 [Example 54, 3-[2-(morpholin-4-yl)ethoxy]-N-[6-(2,2,2-trifluoroethoxy)-1,3-benzothiazol-2-yl]naphthalene-2-carboxamide] | – | 2.4 to 4.9 | − (“−” indicates less than 100 pg/mL) | − (“−” indicates less than 100 pg/mL) | < 2.4 | – | – | – | – |
| O=C(Nc1nc2ccc(S(=O)(=O)N3CCCC3)cc2s1)c1cc2ccsc2cc1OCCN1CCOCC1 [Example 39, 6-[2-(morpholin-4-yl)ethoxy]-N-[6-(pyrrolidine-1-sulfonyl)-1,3-benzothiazol-2-yl]-1-benzothiophene-5-carboxamide] | – | 20 to 39 | ++ (“++” indicates 200-399 pg/mL) | − (“−” indicates less than 100 pg/mL) | < 2.4 | – | – | – | – |
| N#Cc1ccc2nc(NC(=O)c3cc4ccccc4cc3OCCCCN3CCOCC3)sc2c1 [Example 25, N-(6-cyano-1,3-benzothiazol-2-yl)-3-[4-(morpholin-4-yl)butoxy]naphthalene-2-carboxamide] | < 2.4 | – | – | – | – | 2.4 to 4.9 | +* (“+” indicates 100-199 pg/mL) | −* (“−” indicates less than 100 pg/mL) | – |
| O=C(Nc1nc2ccc(C(=O)Nc3c(Cl)cccc3Cl)cc2s1)c1ccc2ncccc2c1 [Example 15, N-{6-[(2,6-dichlorophenyl)carbamoyl]-1,3-benzothiazol-2-yl}quinoline-6-carboxamide] | – | 20 to 39 | ++++ (“++++” indicates 800 to 1599 pg/mL) | − (“−” indicates less than 100 pg/mL) | < 2.4 | – | – | – | – |
| O=C(Nc1nc2ccc(S(=O)(=O)N3CCCC3)cc2s1)c1cc2ccccc2cc1OCCCCN1CCC(F)(F)CC1 [Example 80, 3-[4-(4,4-difluoropiperidin-1-yl)butoxy]-N-[6-(pyrrolidine-1-sulfonyl)-1,3-benzothiazol-2-yl]naphthalene-2-carboxamide] | – | 20 to 39 | ++++ (“++++” indicates 800 to 1599 pg/mL) | − (“−” indicates less than 100 pg/mL) | < 2.4 | – | – | – | – |
| O=C(Nc1ccccn1)c1ccc2nc(NC(=O)c3ccc4ccccc4c3)sc2c1 [Example 14, 2-(naphthalene-2-amido)-N-(pyridin-2-yl)-1,3-benzo-thiazole-6-carboxamide] | – | 20 to 39 | ++++ (“++++” indicates 800 to 1599 pg/mL) | − (“−” indicates less than 100 pg/mL) | < 2.4 | – | – | – | – |
| O=C(Nc1nc2ccc(S(=O)(=O)N3CCC3)cc2s1)c1cc2ccccc2cc1OCCCCN1CCOCC1 [Example 36, N-[6-(azetidine-1-sulfonyl)-1,3-benzothiazol-2-yl]-3-[4-(morpholin-4-yl)butoxy]naphthalene-2-carboxamide] | – | 10 to 19 | +++ (“+++” indicates 400-799 pg/mL) | − (“−” indicates less than 100 pg/mL) | < 2.4 | – | – | – | – |
| O=C(Nc1nc2ccc(S(=O)(=O)N3CCC3)cc2s1)c1ccc2ccccc2c1 [Example 46, N-[6-(azetidine-1-sulfonyl)-1,3-benzothiazol-2-yl]naphthalene-2-carboxamide] | – | – | ++ (“++” indicates 200-399 pg/mL) | − (“−” indicates less than 100 pg/mL) | – | 10 to 19 | – | – | < 2.4 |
